Test results published in US7135467B2, “HIV integrase inhibitors” (priority 2003, dated 2006).

What follows are molecules tested against T1, HIV-integrase (recombinant integrase) (Human immunodeficiency virus type 1 group M subtype B, UniProt P12497) (assay: HIV-Integrase Inhibition Activity (SPA bead strand-transfer assay)). Conditions: recombinant integrase on biotin labeled substrate DNA/SPA beads, P33 labeled target DNA; read-out: Activity (IC50 against HIV-integrase).
T1 construct: Recombinant integrase (0.26 ng) was incubated with the beads
Assay type: biochemical
Procedure: To evaluate in-vitro activity against HIV-integrase, 5 pmole of biotin labeled substrate DNA was bound to 100 μg of Streptavidin coated PVT SPA beads (Amersham Pharmacia Biotech). Recombinant integrase (0.26 ng) was incubated with the beads for 90 min at 37° C. Unbound enzyme was removed by washing the complex followed by addition of inhibitors and 0.1 fmol of P33 labeled target DNA. The reaction was stopped by adding EDTA to a final concentration of 10 mM. Samples were counted in TopCountNXT (Packard) and the CPM was used as a measure of integration. The reaction condition was as described in A. Engelman and R. Craigie, J. Virol. 69, 5908–5911 (1995). The sequences of substrate and target DNA were described in Nucleic Acid Research 22, 1121–1122 (1994). Activity equal to A refers to a compound having IC50=0.003 to 0.10 μM while B and C denote compounds the following IC50=0.1 to 1.0 μM and IC50≧1.0 μM respectively.

| Structure (SMILES) | IC50 [nM] |
| --- | --- |
| Cn1c(N2CCCCS2(=O)=O)nc(C(=O)NCc2ccccc2)c(O)c1=O [Compound 35, 1,6-dihydro-5-hydroxy-1-methyl-6-oxo-N-(phenylmethyl)-2-(tetrahydro-1,1-dioxido-2H-1,2-thiazin-2-yl)-4-pyrimidinecarboxamide] | 100 to 1000 |
| Cn1c(N2CCCCS2(=O)=O)nc(C(=O)NCc2ccccc2Cl)c(O)c1=O [Compound 36, N-[(2-chlorophenyl)methyl]-1,6-dihydro-5-hydroxy-1-methyl-6-oxo-2-(tetrahydro-1,1-dioxido-2H-1,2-thiazin-2-yl)-4-pyrimidinecarboxamide] | 100 to 1000 |
| Cc1ccccc1CNC(=O)c1nc(N2CCCCS2(=O)=O)n(C)c(=O)c1O [Compound 37, 1,6-dihydro-5-hydroxy-1-methyl-N-[(2-methylphenyl)methyl]-6-oxo-2-(tetrahydro-1,1-dioxido-2H-1,2-thiazin-2-yl)-4-pyrimidinecarboxamide] | 100 to 1000 |
| COc1ccccc1CCNC(=O)c1nc(N2CCCCS2(=O)=O)n(C)c(=O)c1O [Compound 38, 1,6-dihydro-5-hydroxy-N-[2-(2-methoxyphenyl)ethyl]-1-methyl-6-oxo-2-(tetrahydro-1,1-dioxido-2H-1,2-thiazin-2-yl)-4-pyrimidinecarboxamide] | ≥ 1000 |
| COc1cccc(CCNC(=O)c2nc(N3CCCCS3(=O)=O)n(C)c(=O)c2O)c1 [Compound 39, 1,6-dihydro-5-hydroxy-N-[2-(3-methoxyphenyl)ethyl]-1-methyl-6-oxo-2-(tetrahydro-1,1-dioxido-2H-1,2-thiazin-2-yl)-4-pyrimidinecarboxamide] | ≥ 1000 |
| Cc1ccc(CCNC(=O)c2nc(N3CCCCS3(=O)=O)n(C)c(=O)c2O)cc1 [Compound 40, 1,6-dihydro-5-hydroxy-1-methyl-N-[2-(4-methylphenyl)ethyl]-6-oxo-2-(tetrahydro-1,1-dioxido-2H-1,2-thiazin-2-yl)-4-pyrimidinecarboxamide] | ≥ 1000 |
| COc1cc(CNC(=O)c2nc(N3CCCCS3(=O)=O)n(C)c(=O)c2O)cc(OC)c1OC [Compound 41, 1,6-dihydro-5-hydroxy-1-methyl-6-oxo-2-(tetrahydro-1,1-dioxido-2H-1,2-thiazin-2-yl)-N-[(3,4,5-trimethoxyphenyl)methyl]-4-pyrimidinecarboxamide] | ≥ 1000 |
| Cn1c(N2CCCCS2(=O)=O)nc(C(=O)NCc2cc(Cl)ccc2Cl)c(O)c1=O [Compound 42, N-[(2,5-dichlorophenyl)methyl]-1,6-dihydro-5-hydroxy-1-methyl-6-oxo-2-(tetrahydro-1,1-dioxido-2H-1,2-thiazin-2-yl)-4-pyrimidinecarboxamide] | 100 to 1000 |
| Cn1c(N2CCCCS2(=O)=O)nc(C(=O)NCc2ccc(Cl)cc2Cl)c(O)c1=O [Compound 43, N-[(2,4-dichlorophenyl)methyl]-1,6-dihydro-5-hydroxy-1-methyl-6-oxo-2-(tetrahydro-1,1-dioxido-2H-1,2-thiazin-2-yl)-4-pyrimidinecarboxamide] | 100 to 1000 |
| Cn1c(N2CCCCS2(=O)=O)nc(C(=O)NCc2cc(C(F)(F)F)cc(C(F)(F)F)c2)c(O)c1=O [Compound 44, N-[[3,5-bis(trifluoromethyl)phenyl]methyl]-1,6-dihydro-5-hydroxy-1-methyl-6-oxo-2-(tetrahydro-1,1-dioxido-2H-1,2-thiazin-2-yl)-4-pyrimidinecarboxamide] | ≥ 1000 |
| Cn1c(N2CCCCS2(=O)=O)nc(C(=O)NCc2cc(F)ccc2F)c(O)c1=O [Compound 45, N-[(2,5-difluorophenyl)methyl]-1,6-dihydro-5-hydroxy-1-methyl-6-oxo-2-(tetrahydro-1,1-dioxido-2H-1,2-thiazin-2-yl)-4-pyrimidinecarboxamide] | 100 to 1000 |
| Cn1c(N2CCCCS2(=O)=O)nc(C(=O)NCc2ccccc2C(F)(F)F)c(O)c1=O [Compound 46, 1,6-dihydro-5-hydroxy-1-methyl-6-oxo-2-(tetrahydro-1,1-dioxido-2H-1,2-thiazin-2-yl)-N-[[2-(trifluoromethyl)phenyl]methyl]-4-pyrimidinecarboxamide] | 100 to 1000 |
